Results from patent publication US6492422B2, “Tricyclic sulfonamides and their derivatives as inhibitors of matrix metalloproteinases” (Warner-Lambert Company, priority 1998, dated 2002).

Key:
[1] = target: T1, MMP-1FL (collagenase-1 full length enzyme) (Homo sapiens, UniProt P03956); assay: MMP inhibition, thiopeptolide substrate, MMP-1FL; assay type: biochemical; conditions: thiopeptolide substrate Ac-Pro-Leu-Gly-thioester-Leu-Leu-Gly-OEt
T1 construct: MMP-IFL (collagenase-1 full length enzyme)
T1 sequence (P03956 100-469): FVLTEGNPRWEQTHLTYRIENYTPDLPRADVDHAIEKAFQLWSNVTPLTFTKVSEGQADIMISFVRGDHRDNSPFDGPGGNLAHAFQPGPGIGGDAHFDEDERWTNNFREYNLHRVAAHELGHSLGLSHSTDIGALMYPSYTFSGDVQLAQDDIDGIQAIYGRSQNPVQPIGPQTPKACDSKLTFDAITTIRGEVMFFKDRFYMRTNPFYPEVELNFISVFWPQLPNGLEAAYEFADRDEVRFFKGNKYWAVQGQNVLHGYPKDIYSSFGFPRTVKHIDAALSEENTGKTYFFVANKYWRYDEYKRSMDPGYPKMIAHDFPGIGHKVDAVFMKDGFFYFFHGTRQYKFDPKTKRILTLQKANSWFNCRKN
Method: (§1) Experiments were carried out with the full-length and catalytic domains of the proteinases. […] IC50 values were determined using a thiopeptolide substrate, Ac-Pro-Leu-Gly-thioester-Leu-Leu-Gly-OEt (Ye Q.-Z., Johnson L. L., Hupe D. J., and Baragi V., “Purification and Characterization of the Human Stromelysin Catalytic Domain Expressed in Escherichia coli,” Biochemistry, 1992;31:11231-11235; Ye Q.-Z., Johnson L. L., Yu A. E., and Hupe D., “Reconstructed 19 kDa catalytic domain of gelatinase A is an active proteinase,” i Biochemistry, 1995;34:47024708.) MMP-13CD was expressed from a synthetic gene and purified from Escherichia coli cell culture according to a previously described method (Ye Q.-Z., Johnson L. L., and Baragi V., “Gene synthesis and expression in E. coli for PUMP, a human matrix metalloproteinase,” Biochemical and Biophysical Research Communications, 1992;186:143-149).

[2] = target: T2, MMP-9FL (gelatinase B full length enzyme) (Homo sapiens, UniProt P14780); assay: MMP inhibition, thiopeptolide substrate, MMP-9FL; assay type: biochemical; conditions: thiopeptolide substrate Ac-Pro-Leu-Gly-thioester-Leu-Leu-Gly-OEt
T2 construct: MMP-9-FL (gelatinase B full length enzyme)
Method: as §1

[3] = target: T3, MMP-13CD (collagenase-3 catalytic domain) (Homo sapiens, UniProt P45452); assay: MMP inhibition, thiopeptolide substrate, MMP-13CD; assay type: biochemical; conditions: thiopeptolide substrate Ac-Pro-Leu-Gly-thioester-Leu-Leu-Gly-OEt; catalytic domain expressed in Escherichia coli
T3 construct: MMP-13CD (collagenase-3 catalytic domain); made in house; host or cells: Escherichia coli
Method: as §1

[4] = target: MMP-14CD (membrane-type MMP-1) (Homo sapiens, UniProt P50281); assay: MMP inhibition, thiopeptolide substrate, MMP-14CD; assay type: biochemical; conditions: thiopeptolide substrate Ac-Pro-Leu-Gly-thioester-Leu-Leu-Gly-OEt; catalytic domain
Method: as §1

[5] = target: MMP-2CD (gelatinase A catalytic domain) (Homo sapiens, UniProt P08253); assay: MMP inhibition, thiopeptolide substrate, MMP-2CD; assay type: biochemical; conditions: thiopeptolide substrate Ac-Pro-Leu-Gly-thioester-Leu-Leu-Gly-OEt
Method: as §1

[6] = target: T4, MMP-2FL (gelatinase A full length enzyme) (Homo sapiens, UniProt P08253); assay: MMP inhibition, thiopeptolide substrate, MMP-2FL; assay type: biochemical; conditions: thiopeptolide substrate Ac-Pro-Leu-Gly-thioester-Leu-Leu-Gly-OEt
T4 construct: Experiments were carried out with the full-length and catalytic domains of the proteinases
T4 sequence (P08253 110-660): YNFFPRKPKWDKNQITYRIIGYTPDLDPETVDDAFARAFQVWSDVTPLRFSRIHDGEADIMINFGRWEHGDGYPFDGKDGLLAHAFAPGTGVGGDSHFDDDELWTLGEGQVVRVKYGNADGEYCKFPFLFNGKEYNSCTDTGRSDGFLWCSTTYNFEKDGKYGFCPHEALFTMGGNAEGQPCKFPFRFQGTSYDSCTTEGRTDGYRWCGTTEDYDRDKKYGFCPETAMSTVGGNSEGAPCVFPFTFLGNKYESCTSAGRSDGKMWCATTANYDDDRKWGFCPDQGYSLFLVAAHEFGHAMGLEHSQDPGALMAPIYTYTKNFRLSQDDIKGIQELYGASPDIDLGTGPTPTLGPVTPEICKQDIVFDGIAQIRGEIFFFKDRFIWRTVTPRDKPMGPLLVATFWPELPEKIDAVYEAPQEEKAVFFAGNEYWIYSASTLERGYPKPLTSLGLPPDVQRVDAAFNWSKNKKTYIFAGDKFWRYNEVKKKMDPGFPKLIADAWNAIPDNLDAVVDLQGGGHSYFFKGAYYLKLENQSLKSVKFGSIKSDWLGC
Method: as §1

[7] = target: T5, MMP-7FL (matrilysin full length enzyme) (Homo sapiens, UniProt P09237); assay: MMP inhibition, thiopeptolide substrate, MMP-7FL; assay type: biochemical; conditions: thiopeptolide substrate Ac-Pro-Leu-Gly-thioester-Leu-Leu-Gly-OEt
T5 construct: MMP-7FL (matrilysin full length enzyme)
T5 sequence (P09237 95-267): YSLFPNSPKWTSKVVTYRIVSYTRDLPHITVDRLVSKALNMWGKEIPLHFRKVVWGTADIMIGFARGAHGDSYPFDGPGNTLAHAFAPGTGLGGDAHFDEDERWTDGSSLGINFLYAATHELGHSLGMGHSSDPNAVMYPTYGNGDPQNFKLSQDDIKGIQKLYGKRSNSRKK
Method: as §1

[8] = target: T6, MMP-3CD (stromelysin-1 catalytic domain) (Homo sapiens, UniProt P08254); assay: MMP inhibition, thiopeptolide substrate, MMP-3CD; assay type: biochemical; conditions: thiopeptolide substrate Ac-Pro-Leu-Gly-thioester-Leu-Leu-Gly-OEt
T6 construct: MMP-3CD (stromelysin-1 catalytic domain)
Method: as §1

T2 sequence (P14780 94-707): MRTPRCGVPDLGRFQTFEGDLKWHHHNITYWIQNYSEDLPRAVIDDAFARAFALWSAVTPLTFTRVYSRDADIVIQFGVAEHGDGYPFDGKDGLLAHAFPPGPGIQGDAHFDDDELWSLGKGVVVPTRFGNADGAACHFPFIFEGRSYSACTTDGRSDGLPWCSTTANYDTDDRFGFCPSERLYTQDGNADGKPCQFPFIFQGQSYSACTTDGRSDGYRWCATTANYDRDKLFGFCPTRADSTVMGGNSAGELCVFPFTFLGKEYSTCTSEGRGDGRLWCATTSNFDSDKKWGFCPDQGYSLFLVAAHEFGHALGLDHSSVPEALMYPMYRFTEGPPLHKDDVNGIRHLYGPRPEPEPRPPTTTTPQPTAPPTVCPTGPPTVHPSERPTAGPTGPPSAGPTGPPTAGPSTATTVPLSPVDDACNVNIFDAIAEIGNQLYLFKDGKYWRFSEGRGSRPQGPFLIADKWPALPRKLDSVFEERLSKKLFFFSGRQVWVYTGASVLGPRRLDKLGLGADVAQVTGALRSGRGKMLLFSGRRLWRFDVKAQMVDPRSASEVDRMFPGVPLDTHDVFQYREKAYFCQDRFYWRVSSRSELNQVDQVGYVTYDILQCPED
T6 sequence (P08254 100-272 limits assumed): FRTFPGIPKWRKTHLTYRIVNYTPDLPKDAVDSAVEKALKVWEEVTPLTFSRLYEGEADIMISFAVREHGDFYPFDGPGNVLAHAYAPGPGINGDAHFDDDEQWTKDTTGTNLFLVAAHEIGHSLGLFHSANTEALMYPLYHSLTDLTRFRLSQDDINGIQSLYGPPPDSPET
MMP-2CD (gelatinase A catalytic domain), sequence (P08253 with tags, fused parts or gaps DEL222-396): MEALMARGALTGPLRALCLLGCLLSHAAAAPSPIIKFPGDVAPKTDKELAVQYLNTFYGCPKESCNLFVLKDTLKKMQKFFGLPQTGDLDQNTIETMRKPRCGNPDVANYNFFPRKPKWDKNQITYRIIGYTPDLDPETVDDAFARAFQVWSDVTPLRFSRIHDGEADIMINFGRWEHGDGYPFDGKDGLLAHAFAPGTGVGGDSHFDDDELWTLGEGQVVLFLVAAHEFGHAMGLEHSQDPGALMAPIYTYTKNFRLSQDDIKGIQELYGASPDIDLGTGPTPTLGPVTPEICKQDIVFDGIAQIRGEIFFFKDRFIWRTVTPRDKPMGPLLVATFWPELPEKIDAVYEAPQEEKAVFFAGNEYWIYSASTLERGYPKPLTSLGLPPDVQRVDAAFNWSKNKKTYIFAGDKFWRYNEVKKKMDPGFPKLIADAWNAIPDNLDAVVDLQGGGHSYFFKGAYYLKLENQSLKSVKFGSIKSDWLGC

IC50 [1]	IC50 [2]	IC50 [3]	IC50 [4]	IC50 [5]	IC50 [6]	IC50 [7]	IC50 [8]	melting point	Structure (SMILES)
6.7 µM	30 µM	3.45 µM	0.38 µM	0.037 µM	0.335 µM	82 µM	0.046 µM	–	CC(C)[C@@H](NS(=O)(=O)c1ccc2c3c(oc2c1)CCCC3)C(=O)O [Example 1, (R) 3-Methyl-2-(6,7,8,9-tetrahydro-dibenzofuran-3-sulfonylamino)-butyric Acid]
6.05 µM	100 µM	2.3 µM	0.155 µM	0.034 µM	0.43 µM	7.5 µM	0.0245 µM	162 to 165 °C	CC(C)[C@H](NS(=O)(=O)c1ccc2c3c(oc2c1)CCCC3)C(=O)O [Example 2, (S) 3-Methyl-2-(6,7,8,9-tetrahydro-dibenzofuran-3-sulfonylamino)-butyric Acid]
16 µM	100 µM	0.97 µM	0.048 µM	0.0167 µM	0.45 µM	3.2 µM	0.0056 µM	176 to 179 °C	O=C(O)C[C@H](NS(=O)(=O)c1ccc2c3c(oc2c1)CCCC3)C(=O)O [Example 3, (S) 2-(6,7,8,9-Tetrahydro-dibenzofuran-3-sulfonylamino)-succinic Acid]
25 µM	28 µM	1.34 µM	0.064 µM	0.018 µM	0.15 µM	2.3 µM	0.0215 µM	167 to 169 °C	O=C(O)[C@H](CCc1ccccc1)NS(=O)(=O)c1ccc2c3c(oc2c1)CCCC3 [Example 4, (S) 4-Phenyl-2-(6,7,8,9-tetrahydro-dibenzofuran-3-sulfonylamino)-butyric Acid]
